From EP3892275A1, “AEROSOLIZATION OF HCQ OR ITS METABOLITES FOR THE TREATMENT OF LUNG INFECTIONS” (INSERM (Institut National de la Santé et de la Recherche …, priority 2020, dated 2021)

Columns and labels:
[1] = Behaviour in water (solubility, aggregation)
COVID = conditions: references 1,2; cited from earlier work
lung = conditions: aerosol delivery in animals; cited from earlier work

CC(CCCNCCO)Nc1ccnc2cc(Cl)ccc12 (stereo not drawn) [DHCQ, N-desethylhydroxychloroquine]
aggregation when dissolved in water [1]: do not aggregate | solubility in water [1]: water-soluble

CCN(CCO)CCCC(C)Nc1ccnc2cc(Cl)ccc12.O=S(=O)(O)O (stereo not drawn) [HCQ, 2-[[4-[(7-Chloro-4-quinolyl)amino]pentyl]ethylamino] ethanol sulfate (1:1)]
antiviral activity in vitro at a cellular level (COVID): highly potent antiviral drug | anti-inflammatory effect on the lung (lung): rapid and potent anti-inflammatory effect on the lung | aggregation when dissolved in water [1]: do not aggregate | solubility in water [1]: water-soluble
